Data published in US11352354B2, “Substituted penta-fused hexa-heterocyclic compounds, preparation method therefor, drug combination and use thereof” (Xiamen University, priority 2017, dated 2022).

Test system: MDA-MB-231 cells
Assay: Vacuolation of MDA-MB-231 cells caused by inhibition of compounds on PIKfyve (microscopy)
Assay type: cell-based
Details: MDA-MB-231 cells
From the text: I. Determination of Vacuolation of MDA-MB-231 Cells Caused by Inhibition of Compounds on PIKfyve
When the activity of pikfyve kinase is inhibited, vacuoles will be produced in cytoplasm. By observing the number of vacuoles under a microscope, the ability of compounds to inhibit the activity of pikfyve kinase can be known.
1. Cell plating: cells in logarithmic growth phase were made into a single cell suspension, counted with a cell counter and diluted to a cell concentration of about 2×10^5/mL. Then, the cells were inoculated into a 12-well plate, and cultured in a 37° C., 5% CO2 incubator.
3. Vacuolation test: after 24 and 48 hours of culture, photos were taken under an […] to observe the degree of vacuolation.
(In the table, “+” represents the degree of vacuolation; more “+” indicates more obvious vacuolation; “−” represents no vacuolation)

Compound | degree of vacuolation, 1 μM, 24 h | degree of vacuolation, 1 μM, 48 h | degree of vacuolation, 10 μM, 24 h | degree of vacuolation, 10 μM, 48 h
Cc1ccc(NC(=O)c2cccc(C(F)(F)F)c2)cc1Nc1cc(-c2ccncc2)nc2[nH]ccc12 [I-a-10] | − | − | ++ | ++
Cc1ccc(C(=O)Nc2cccc(C(F)(F)F)c2)cc1Nc1cc(-c2ccncc2)nc2[nH]ccc12 [I-a-21] | − | − | − | −
Cc1ccc(C(=O)Nc2ccc(CN3CCN(C)CC3)c(C(F)(F)F)c2)cc1Nc1cc(-c2cccnc2)nc2[nH]ccc12 [I-a-24] | − | − | − | −
CN1CCN(Cc2cc(NC(=O)c3cccc(Nc4cc(-c5cccnc5)nc5[nH]ccc45)c3)cc(C(F)(F)F)c2)CC1 [I-a-26] | − | − | − | −
CN1CCN(Cc2cc(NC(=O)c3cccc(Nc4cc(-c5ccncc5)nc5[nH]ccc45)c3)cc(C(F)(F)F)c2)CC1 [I-a-27] | + | − | + | −
O=C(Nc1cccc(C(F)(F)F)c1)c1cccc(Nc2cc(-c3cccnc3)nc3[nH]ccc23)c1 [I-a-30] | + | + | + | +
Cc1ccc(C(=O)Nc2cc(C(F)(F)F)cc(C(F)(F)F)c2)cc1Nc1cc(-c2cccnc2)nc2[nH]ccc12 [I-a-31] | − | − | − | −
COc1cccc(NC(=O)c2ccc(C)c(Nc3cc(-c4cccnc4)nc4[nH]ccc34)c2)c1 [I-a-32] | + | ++ | + | ++
Cc1ccc(C(=O)Nc2cccc(OC(F)(F)F)c2)cc1Nc1cc(-c2cccnc2)nc2[nH]ccc12 [I-a-33] | + | ++ | + | ++
Cc1cccc(NC(=O)c2ccc(C)c(Nc3cc(-c4cccnc4)nc4[nH]ccc34)c2)c1 [I-a-34] | + | ++ | + | ++
Cc1ccc(C(=O)Nc2cccc(Cl)c2)cc1Nc1cc(-c2cccnc2)nc2[nH]ccc12 [I-a-35] | + | ++ | + | ++
O=C(Nc1cccc(C(F)(F)F)c1)c1ccc(F)c(Nc2cc(-c3cccnc3)nc3[nH]ccc23)c1 [I-a-38] | + | + | ++ | ++
Cc1ccc(NC(=S)Nc2cccc(C(F)(F)F)c2)cc1Nc1cc(-c2cccnc2)nc2[nH]ccc12 [I-a-40] | + | + | + | +
Cc1cc(NC(=O)c2ccc(C)c(Nc3cc(-c4cccnc4)nc4[nH]ccc34)c2)n(C)n1 [I-a-45] | − | + | + | +
Cc1ccc(C(=O)Nc2ccc(CN3CCN(C)CC3)c(C(F)(F)F)c2)cc1Nc1cc(-c2cccnc2)nc2c1ccn2C [I-b-5] | − | − | + | +
Cc1ccc(C(=O)Nc2cccc(C(F)(F)F)c2)cc1Nc1nc(-c2ccccc2)nc2c1cnn2C [III-b-2] | − | − | − | −
Cc1ccc(C(=O)Nc2ccc(CN3CCN(C)CC3)c(C(F)(F)F)c2)cc1Nc1nc(-c2ccncc2)nc2[nH]cnc12 [IV-a-5] | + | − | + | −
Cc1ccc(C(=O)Nc2cccc(OC(F)(F)F)c2)cc1Nc1nc(-c2ccncc2)nc2[nH]cnc12 [IV-a-7] | − | − | + | ++
Cc1ccc(C(=O)Nc2ccc(CN3CCN(C)CC3)c(C(F)(F)F)c2)cc1Nc1nc(-c2cccnc2)nc2c1ncn2C [IV-b-9] |  | − |  | −

Compound | degree of vacuolation, 1 μM, 24 h | degree of vacuolation, 1 μM, 48 h | degree of vacuolation, 10 μM, 24 h | degree of vacuolation, 10 μM, 48 h
Cc1ccc(C(=O)Nc2ccc(CN3CCN(C)CC3)c(C(F)(F)F)c2)cc1Nc1nc(-c2ccncc2)nc2c1ncn2C [IV-b-10] |  | − |  | −
Cc1ccc(C(=O)Nc2cccc(OC(F)(F)F)c2)cc1Nc1nc(-c2cccnc2)nc2c1ncn2C [IV-b-11] | + | + |  | +
O=C(Nc1cccc(C(F)(F)F)c1)c1cccc(Nc2nc(-c3cccnc3)nc3cc[nH]c23)c1 [V-a-1] | − | − | + | +
Cc1ccc(NC(=O)c2cccc(C(F)(F)F)c2)cc1Nc1nc(-c2cccnc2)nc2cc[nH]c12 [V-a-3] | ++ | ++ | + | +
Cc1ccc(NC(=O)c2cccc(C(F)(F)F)c2)cc1Nc1nc(-c2ccncc2)nc2cc[nH]c12 [V-a-4] | − | − | − | −
Cc1cn(-c2cc(NC(=O)c3ccc(C)c(Nc4nc(-c5cccnc5)nc5cc[nH]c45)c3)cc(C(F)(F)F)c2)cn1 [V-a-7] | − | − | + | +
Cc1cn(-c2cc(NC(=O)c3ccc(C)c(Nc4nc(-c5ccncc5)nc5cc[nH]c45)c3)cc(C(F)(F)F)c2)cn1 [V-a-8] | + | + | ++ | ++
Cc1ccc(C(=O)Nc2ccc(CN3CCN(C)CC3)c(C(F)(F)F)c2)cc1Nc1nc(-c2ccncc2)nc2cc[nH]c12 [V-a-10] | ++ | ++ | − | −
Cc1ccc(NC(=O)c2cccc(C(F)(F)F)c2)cc1Nc1nc(-c2ccncc2)nc2ccn(C)c12 [V-b-2] | − | − | ++ | ++
Cc1ccc(C(=O)Nc2cccc(C(F)(F)F)c2)cc1Nc1nc(-c2cccnc2)nc2ccn(C)c12 [V-b-3] | + | + | ++ | ++
Cc1ccc(C(=O)Nc2ccc(CN3CCN(C)CC3)c(C(F)(F)F)c2)cc1Nc1nc(-c2cccnc2)nc2ccn(C)c12 [V-b-7] | + | + | − | −
COc1ccc(Br)cc1NC(=O)Nc1cccc(-c2nc(NCc3cccnc3)c3c(ccn3C)n2)c1 [V-b-29] | + | − | − | −
COc1ccc(Br)cc1NC(=S)Nc1cccc(-c2nc(NCc3cccnc3)c3c(ccn3C)n2)c1 [V-b-30] | − | − | + | +
Nc1ccc(NC(=O)c2cccc(Nc3nc(-c4cccnc4)c4[nH]ccc4n3)c2)cc1 [V-c-3] | + | + | ++ | ++
Cc1cc(NC(=O)c2ccccc2N)ccc1Nc1nc(-c2cccnc2)c2[nH]ccc2n1 [V-c-25] | − | − | − | −
Cc1cc(NS(=O)(=O)c2ccccc2)ccc1Nc1nc(-c2cccnc2)c2[nH]ccc2n1 [V-c-35] | − | − | + | +
Cc1ccc(NC(=O)c2cccc(C(F)(F)F)c2)cc1Nc1nc(-c2cccnc2)cn2ccnc12 [VI-a-5] | − | + | − | +
Cc1ccc(C(=O)Nc2ccc(CN3CCN(C)CC3)c(C(F)(F)F)c2)cc1Nc1nc(-c2ccncc2)cn2ccnc12 [VI-a-8] |  | − |  | −
